According to PMC12369479 (Journal of Experimental Botany, 2025):

Experiments:
PpADK2 = PpADK2 (Physcomitrium patens, UniProt A9RF27); test: ADK activity, coupled reaction with PK and LDH; conditions: 100 µM substrate, 10 mM ATP, pH 7.5, 30 °C
Description: (§1) Substrate analogs were purchased from Sigma-Aldrich (www.sigmaaldrich.com). The ADK activity was measured spectrophotometrically on an Agilent 8453 UV-Vis spectrophotometer (www.agilent.com) at 30 °C using a coupled reaction with pyruvate kinase (PK) and lactate dehydrogenase (LDH) (www.sigmaaldrich.com) ([Blondin et al., 1994]). In this assay, PK converts ADP produced by ADK and phosphoenolpyruvate (PEP) to pyruvate. Subsequently, LDH then converts pyruvate to lactate using the coenzyme NADH, with the conversion monitored at 340 nm. The reaction was conducted in 50 mM Tris–HCl buffer at pH 7.5, containing 50 mM KCl, 6 mM MgCl2, 300 µM PEP, 200 µM NADH, 10 mM ATP, 2 U of PK, and 2.5 U of LDH, using various nucleoside substrates. Kinetic constants were determined using GraphPad Prism 8.0 software (www.graphpad.com). Each measurement was performed six times using repetitive purified enzymes. The activities of all five ADKs were also measured by HPLC ([Moffatt et al., 1991]). The reaction mixture comprised 50 mM Tris–HCl pH 7.5, 5 mM MgCl2, 0.5 mM DTT, 30 mM NaF, 5 mM ATP, 40 µM substrate, and 2–150 ng of purified ADK, depending on the isoform. The reaction was incubated at 30 °C for up to 1 h. […] Similarly, the conversion of cytokinin ribosides to monophosphates was followed on a LiChrosphere 60 RP-Select B (5 µm) LiChroCART column 125-4 column equilibrated with 10 mM triethylamine at pH 5.4 plus 10% methanol, and stepwise eluted with 100% methanol.

ZmADK1 = ZmADK1 (Zea mays, UniProt K7UH13); test: ADK activity, coupled reaction with PK and LDH; conditions: 100 µM substrate, 10 mM ATP, pH 7.5, 30 °C
Description: as §1

ZmADK2 [1] = molecular target: T1, ZmADK2 (Zea mays, UniProt B4FFH8, T4S); test: ADK activity, coupled reaction with PK and LDH; format: biochemical; conditions: ZmADK2; 100 µM substrate; 10 mM ATP; pH 7.5; 30 °C
Description: as §1

ZmADK3 = ZmADK3 (Zea mays, UniProt A0A1D6E5Z5); test: ADK activity, coupled reaction with PK and LDH; format: biochemical
Description: Substrate analogs were purchased from Sigma-Aldrich (www.sigmaaldrich.com). […] In this assay, PK converts ADP produced by ADK and phosphoenolpyruvate (PEP) to pyruvate. Subsequently, LDH then converts pyruvate to lactate using the coenzyme NADH, with the conversion monitored at 340 nm. The reaction was conducted in 50 mM Tris–HCl buffer at pH 7.5, containing 50 mM KCl, 6 mM MgCl2, 300 µM PEP, 200 µM NADH, 10 mM ATP, 2 U of PK, and 2.5 U of LDH, using various nucleoside substrates. Kinetic constants were determined using GraphPad Prism 8.0 software (www.graphpad.com). Each measurement was performed six times using repetitive purified enzymes. […] The reaction mixture comprised 50 mM Tris–HCl pH 7.5, 5 mM MgCl2, 0.5 mM DTT, 30 mM NaF, 5 mM ATP, 40 µM substrate, and 2–150 ng of purified ADK, depending on the isoform. The reaction was incubated at 30 °C for up to 1 h.

PpADK1 [2] = molecular target: T2, PpADK1 (Physcomitrium patens, UniProt O49923); test: ADK activity, coupled reaction with PK and LDH; format: biochemical, Physcomitrella patens; conditions: 100 µM substrate, 10 mM ATP, pH 7.5, 30 °C
T2 construct: made in house; host or cells: E. coli T7 Express Iq
Description: as §1

ZmADK2 [3] = molecular target: T1, ZmADK2; test: Binding affinity by microscale thermophoresis (MST); conditions: MST
Description: (§2) The microscale thermophoresis (MST) method was used to determine the binding affinity of various ribosides for ZmADK2 and PpADK1. Proteins were fluorescently labeled with RED-tris-NTA dye (www.nanotemper-technologies.com) using a 1:1 dye/protein molar ratio. The labeled protein was adjusted to 100–300 nM in 50 mM HEPES buffer pH 7.5, 1 mM MgCl2, and 0.2% Tween. Measurements were performed in premium capillaries on a Monolith NT.115 instrument at 30 °C with 5 s/30 s/5 s laser off/on/off times, respectively, with continuous sample fluorescence recording. Thermal stability was measured by nano-differential scanning fluorimetry on a Prometheus NT.48 instrument (www.nanotemper-technologies.com) in various buffers covering a pH (7.0–9.5) and temperature range (25–95 °C), with a heating rate of 1 °C min^–1, and using NT melting control software. Protein unfolding was measured by detecting the temperature-induced change in tryptophan fluorescence intensity at emission wavelengths of 330±5 nm and 350±5 nm. The melting temperature (Tm) was deduced from the maximum of the first derivative of the fluorescence ratios F350/F330.

PpADK1 [4] = molecular target: T2, PpADK1; test: as above; parameters: species or system Physcomitrella patens; conditions: 50 mM HEPES pH 7.5, 1 mM MgCl2, first or only binding event, read-out: KD
Description: as §2

WT ZmADK3 = WT ZmADK3 (Zea mays, UniProt A0A1D6E5Z5); test: Binding affinity by MST
ZmADK3 D19A variant = ZmADK3 D19A variant (Zea mays, UniProt A0A1D6E5Z5, D19A); test: Binding affinity by MST
Description: All ZmADK3 mutants were cloned by 30 cycle PCRs using tail-to-tail oriented phosphorylated primers, with the mutation being located at the 5′ end of one of the primers. The following mutants were cloned using the primers given in Supplementary Table S1: D19A, R132A, N222A, E225A, N295A, and D299A. The products were treated with DpnI restriction enzyme, gel purified, and ligated using T4 DNA ligase (www.thermofisher.com). Clones were transformed into T7 express I^qE. coli competent cells.
as §2

both moss enzymes = test: ADK activity, coupled reaction (summary for moss enzymes); format: biochemical, Physcomitrella patens; conditions: saturating 100 µM concentration
Description: (§3) Substrate analogs were purchased from Sigma-Aldrich (www.sigmaaldrich.com). The ADK activity was measured spectrophotometrically on an Agilent 8453 UV-Vis spectrophotometer (www.agilent.com) at 30 °C using a coupled reaction with pyruvate kinase (PK) and lactate dehydrogenase (LDH) (www.sigmaaldrich.com) ([Blondin et al., 1994]). In this assay, PK converts ADP produced by ADK and phosphoenolpyruvate (PEP) to pyruvate. Subsequently, LDH then converts pyruvate to lactate using the coenzyme NADH, with the conversion monitored at 340 nm. The reaction was conducted in 50 mM Tris–HCl buffer at pH 7.5, containing 50 mM KCl, 6 mM MgCl2, 300 µM PEP, 200 µM NADH, 10 mM ATP, 2 U of PK, and 2.5 U of LDH, using various nucleoside substrates. Kinetic constants were determined using GraphPad Prism 8.0 software (www.graphpad.com). Each measurement was performed six times using repetitive purified enzymes. The activities of all five ADKs were also measured by HPLC ([Moffatt et al., 1991]). The reaction mixture comprised 50 mM Tris–HCl pH 7.5, 5 mM MgCl2, 0.5 mM DTT, 30 mM NaF, 5 mM ATP, 40 µM substrate, and 2–150 ng of purified ADK, depending on the isoform. The reaction was incubated at 30 °C for up to 1 h. […]

all five ADKs = test: ADK kinetics, coupled reaction (summary for all isoforms); format: biochemical, Zea mays, Physcomitrella patens; conditions: range over all five ADKs
Description: as §3

ZmADK2 and PpADK1 = test: Binding affinity by MST (summary for both enzymes); parameters: species or system Zea mays, Physcomitrella patens; conditions: range over ZmADK2 and PpADK1
Description: as §2

rabbit ADK = test system: rabbit ADK; parameters: method as in Miller et al., 1979a; conditions: ref Miller et al., 1979a; cited from earlier work

Sequence of ZmADK3 (A0A1D6E5Z5 entry or part of it): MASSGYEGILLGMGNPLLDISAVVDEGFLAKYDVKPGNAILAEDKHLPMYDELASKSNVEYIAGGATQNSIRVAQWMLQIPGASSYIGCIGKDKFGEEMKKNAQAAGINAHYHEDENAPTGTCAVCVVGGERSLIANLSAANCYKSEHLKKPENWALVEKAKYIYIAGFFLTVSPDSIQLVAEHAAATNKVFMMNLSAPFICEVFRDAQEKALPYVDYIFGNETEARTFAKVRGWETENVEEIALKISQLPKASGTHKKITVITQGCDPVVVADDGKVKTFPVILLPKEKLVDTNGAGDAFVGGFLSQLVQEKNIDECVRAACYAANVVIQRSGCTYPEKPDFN
T1 sequence (B4FFH8 1-342 T4S): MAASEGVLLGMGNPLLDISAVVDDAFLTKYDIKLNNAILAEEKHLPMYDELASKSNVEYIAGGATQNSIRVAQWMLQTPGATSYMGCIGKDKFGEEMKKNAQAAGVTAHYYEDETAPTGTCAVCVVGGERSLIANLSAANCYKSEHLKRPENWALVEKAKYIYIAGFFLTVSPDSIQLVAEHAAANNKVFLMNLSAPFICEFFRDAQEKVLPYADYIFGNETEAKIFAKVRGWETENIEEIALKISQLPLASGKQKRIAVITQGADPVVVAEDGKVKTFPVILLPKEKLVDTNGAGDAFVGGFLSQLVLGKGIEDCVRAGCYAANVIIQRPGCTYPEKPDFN
T2 sequence (O49923 whole entry): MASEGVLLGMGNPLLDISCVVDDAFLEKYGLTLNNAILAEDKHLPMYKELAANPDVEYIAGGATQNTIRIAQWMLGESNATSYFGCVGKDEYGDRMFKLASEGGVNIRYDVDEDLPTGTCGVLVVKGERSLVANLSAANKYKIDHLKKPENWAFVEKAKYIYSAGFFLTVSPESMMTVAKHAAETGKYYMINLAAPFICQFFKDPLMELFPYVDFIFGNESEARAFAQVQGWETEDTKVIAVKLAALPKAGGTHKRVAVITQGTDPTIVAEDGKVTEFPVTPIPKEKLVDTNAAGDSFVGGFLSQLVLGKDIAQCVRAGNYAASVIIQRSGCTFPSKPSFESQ
Sequence of WT ZmADK3 (A0A1D6E5Z5 2-344): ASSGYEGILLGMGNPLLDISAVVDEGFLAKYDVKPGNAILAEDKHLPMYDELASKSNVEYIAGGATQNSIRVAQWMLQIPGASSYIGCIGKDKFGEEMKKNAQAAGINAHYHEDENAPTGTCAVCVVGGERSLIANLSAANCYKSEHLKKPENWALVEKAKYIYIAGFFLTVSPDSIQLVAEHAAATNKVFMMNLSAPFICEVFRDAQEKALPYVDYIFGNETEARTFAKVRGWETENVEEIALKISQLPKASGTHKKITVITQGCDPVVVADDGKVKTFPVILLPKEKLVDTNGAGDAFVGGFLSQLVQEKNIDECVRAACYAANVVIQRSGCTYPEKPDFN
Sequence of ZmADK1 (K7UH13 entry or part of it): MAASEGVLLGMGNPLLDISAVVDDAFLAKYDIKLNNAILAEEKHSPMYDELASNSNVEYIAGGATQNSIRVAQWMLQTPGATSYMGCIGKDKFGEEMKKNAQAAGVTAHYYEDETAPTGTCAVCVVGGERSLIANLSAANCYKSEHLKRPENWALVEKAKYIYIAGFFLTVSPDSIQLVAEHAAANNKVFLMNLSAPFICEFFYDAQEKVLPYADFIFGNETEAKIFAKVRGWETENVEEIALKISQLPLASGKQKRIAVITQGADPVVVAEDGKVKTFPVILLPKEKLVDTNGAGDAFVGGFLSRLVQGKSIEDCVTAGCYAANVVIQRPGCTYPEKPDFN
Sequence of ZmADK3 D19A variant (A0A1D6E5Z5 entry or part of it D19A): as the sequence (A0A1D6E5Z5 2-344) above, with D18A counted along it
Sequence of PpADK2 (A9RF27 entry or part of it): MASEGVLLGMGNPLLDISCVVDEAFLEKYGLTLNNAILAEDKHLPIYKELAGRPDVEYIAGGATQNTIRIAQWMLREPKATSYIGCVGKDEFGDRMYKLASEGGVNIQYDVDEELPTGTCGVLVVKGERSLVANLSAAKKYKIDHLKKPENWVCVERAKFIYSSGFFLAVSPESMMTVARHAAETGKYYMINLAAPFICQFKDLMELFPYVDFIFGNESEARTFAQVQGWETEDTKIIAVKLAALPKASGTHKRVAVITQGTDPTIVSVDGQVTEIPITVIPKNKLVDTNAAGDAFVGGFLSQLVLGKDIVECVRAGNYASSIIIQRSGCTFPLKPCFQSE

`Nc1ncnc2c1ncn2[C@@H]1O[C@H](CO)[C@@H](O)[C@H]1O` [Ado, adenosine] gave a Specific activity (PpADK2) of 4.70±0.05 nmol s^–1 mg^–1, a Specific activity (ZmADK1) of 30.5±0.4 nmol s^–1 mg^–1 and a Specific activity (ZmADK2 [1]) of 40.3±1.4 nmol s^–1 mg^–1. It also gave a Specific activity (ZmADK3; WT ZmADK3, 100 µM Ado, 10 mM ATP, 30 °C) of 31.0±0.8 nkat mg^–1, a Relative rate (ZmADK3; WT ZmADK3, 100 µM Ado, relative to WT) of 100.0% and a Specific activity (ZmADK3; ZmADK3, 100 µM substrate, 10 mM ATP, pH 7.5, 30 °C) of 30.0±1.1 nmol s^–1 mg^–1. It also gave a kcat (ZmADK3; ZmADK3, 10 mM ATP, pH 7.5, 30 °C) of 1.18±0.03 s^–1, a Specific activity (PpADK1 [2]) of 5.09±0.26 nmol s^–1 mg^–1 and a Kd (ZmADK2 [3]; KD, 50 mM HEPES pH 7.5, 1 mM MgCl2, first or only binding event) of 0.0004 ± 0.00014 mM. For the same molecule, the Kd (ZmADK2 [3]; second KD value, KD(2), second binding event (ATP site)) was roughly 1.5 mM, the Kd (ZmADK2 [3]; second KD value, second binding event (ATP site)) was 1.48 ± 0.23 mM and the Kd (PpADK1 [4]) was 700 nM. For the same molecule, the Kd (WT ZmADK3) was 280 ± 50 nM, the Kd (ZmADK3 D19A variant) was 989 ± 161 µM and the activity (both moss enzymes) was 4–5 nkat mg^–1. For the same molecule, the Km (all five ADKs) was 500 to 700 nM, the Kd (ZmADK2 and PpADK1) was 400 to 700 nM and the Km (rabbit ADK) was 400 nM.
